Reference: US20220226337A1 (Gilead Sciences, Inc., priority 2018, published 2022)

Target: T1, α4β7 integrin interaction with MadCAM-1 (RPMI8866 cells) (Homo sapiens, UniProt P13612+P26010)
T1 construct: α4β7 integrin expressing cells; endogenous in cells; host or cells: RPMI8866 cells
T1 sequence (P13612 34-1032): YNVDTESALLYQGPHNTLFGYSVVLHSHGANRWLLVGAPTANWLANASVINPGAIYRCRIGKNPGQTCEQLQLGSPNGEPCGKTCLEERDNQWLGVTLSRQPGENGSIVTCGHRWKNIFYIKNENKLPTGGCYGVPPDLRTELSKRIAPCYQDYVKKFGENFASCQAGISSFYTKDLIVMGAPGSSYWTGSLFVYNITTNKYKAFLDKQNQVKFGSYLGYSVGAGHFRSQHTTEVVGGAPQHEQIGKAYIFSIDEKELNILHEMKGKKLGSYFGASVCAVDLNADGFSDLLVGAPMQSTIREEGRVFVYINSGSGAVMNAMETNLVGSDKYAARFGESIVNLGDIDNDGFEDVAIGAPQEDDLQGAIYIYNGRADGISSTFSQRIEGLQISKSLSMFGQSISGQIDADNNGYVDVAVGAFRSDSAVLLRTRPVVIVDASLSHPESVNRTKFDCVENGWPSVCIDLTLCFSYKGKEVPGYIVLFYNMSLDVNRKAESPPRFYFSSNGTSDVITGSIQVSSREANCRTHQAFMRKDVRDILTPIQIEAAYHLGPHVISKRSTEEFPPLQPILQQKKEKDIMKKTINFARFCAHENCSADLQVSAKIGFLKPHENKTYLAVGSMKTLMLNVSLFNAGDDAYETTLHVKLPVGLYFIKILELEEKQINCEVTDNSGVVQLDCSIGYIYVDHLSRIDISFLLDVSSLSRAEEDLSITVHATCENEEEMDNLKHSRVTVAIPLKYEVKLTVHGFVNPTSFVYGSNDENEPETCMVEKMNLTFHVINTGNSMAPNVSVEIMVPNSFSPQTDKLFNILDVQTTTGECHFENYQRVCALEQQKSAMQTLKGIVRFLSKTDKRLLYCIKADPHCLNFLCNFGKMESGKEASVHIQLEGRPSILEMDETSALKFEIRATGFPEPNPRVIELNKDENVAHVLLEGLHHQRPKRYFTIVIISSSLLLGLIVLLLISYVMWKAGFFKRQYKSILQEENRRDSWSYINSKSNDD
T1 sequence (P26010 20-798): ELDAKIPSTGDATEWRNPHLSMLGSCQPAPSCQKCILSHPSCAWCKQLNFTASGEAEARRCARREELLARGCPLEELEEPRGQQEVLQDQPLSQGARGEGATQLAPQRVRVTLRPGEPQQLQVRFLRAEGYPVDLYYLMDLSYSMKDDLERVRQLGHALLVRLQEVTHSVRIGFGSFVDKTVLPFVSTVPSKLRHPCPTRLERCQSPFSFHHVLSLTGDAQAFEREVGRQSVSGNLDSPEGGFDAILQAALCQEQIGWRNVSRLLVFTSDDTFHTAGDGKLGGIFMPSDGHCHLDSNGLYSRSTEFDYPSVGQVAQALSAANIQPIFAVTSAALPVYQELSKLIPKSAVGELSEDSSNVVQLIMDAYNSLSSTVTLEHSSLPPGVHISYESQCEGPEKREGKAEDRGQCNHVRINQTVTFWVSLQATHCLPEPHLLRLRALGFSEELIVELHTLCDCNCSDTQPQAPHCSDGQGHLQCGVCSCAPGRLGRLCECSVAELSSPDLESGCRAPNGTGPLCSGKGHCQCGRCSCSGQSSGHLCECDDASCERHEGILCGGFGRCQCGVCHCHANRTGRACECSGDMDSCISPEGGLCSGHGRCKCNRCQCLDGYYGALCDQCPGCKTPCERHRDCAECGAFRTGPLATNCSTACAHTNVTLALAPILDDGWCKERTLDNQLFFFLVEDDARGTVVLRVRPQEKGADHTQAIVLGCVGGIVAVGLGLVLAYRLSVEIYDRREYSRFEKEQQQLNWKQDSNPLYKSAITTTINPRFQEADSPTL
Experiment: α4β7 Integrin Cell Capture Assay
Format: cell-based
Conditions: capture of α4β7 integrin expressing RPMI8866 cells on recombinant MadCAM-1 extracellular domain-coated plate; 0.5 mM MnCl2
Summary of the method: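 RPMI8866 cells (0.5×10^6 cells/mL in DMEM + 0.5% FBS + 0.5 mM MnCl2) preincubated with compound 1 h at 37 °C, then allowed to adhere 30 min at 37 °C to plates coated with MAdCAM-1 extracellular domain (1.0 μg/mL). Bound cells fixed with 2% glutaraldehyde, Hoechst-stained, imaged and counted; EC50 from cell count versus concentration.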

C[C@@H](Nc1cc(F)c(C(=O)N[C@@H](Cc2ccc(-c3ncccc3C(F)(F)F)c3c2CCCO3)C(=O)O)c(F)c1)C(F)(F)F [Example 89, (S)-2-(2,6-difluoro-4-(((R)-1,1,1-trifluoropropan-2-yl)amino)benzamido)-3-(8-(3-(trifluoromethyl)pyridin-2-yl)chroman-5-yl)propanoic acid]
EC50: 8.47 nM

O=C(N[C@@H](Cc1ccc(-c2cc(F)c(F)c3c2OCCC3)c2c1CCCO2)C(=O)O)c1c(Cl)cccc1Cl [Example 90, (S)-2-(2,6-dichlorobenzamido)-3-(5′,6′-difluoro-[8,8′-bichroman]-5-yl)propanoic acid]
EC50: 16 nM

C[C@@H](Nc1cc(F)c(C(=O)N[C@@H](Cc2ccc(-c3c(Cl)cc(C#N)cc3Cl)c3c2CCCO3)C(=O)O)c(F)c1)C(F)(F)F [Example 91, (S)-3-(8-(2,6-dichloro-4-cyanophenyl)chroman-5-yl)-2-(2,6-difluoro-4-(((R)-1,1,1-trifluoropropan-2-yl)amino)benzamido)propanoic acid]
EC50: 11 nM

CS(=O)(=O)Nc1cc(F)c(C(=O)N[C@@H](Cc2ccc(-c3c(Cl)cc(F)cc3Cl)c3c2CCCO3)C(=O)O)c(F)c1 [Example 92, (S)-3-(8-(2,6-dichloro-4-fluorophenyl)chroman-5-yl)-2-(2,6-difluoro-4-(methylsulfonamido)benzamido)propanoic acid]
EC50: 9.19 nM

COc1cc(C#Cc2ccc(OC(F)(F)F)cc2)cc(OC)c1-c1ccc(C[C@H](NC(=O)c2c(Cl)cccc2Cl)C(=O)O)c2c1OCCC2 [Example 93, (S)-2-(2,6-dichlorobenzamido)-3-(8-(2,6-dimethoxy-4-((4-(trifluoromethoxy)phenyl)ethynyl)phenyl)chroman-5-yl)propanoic acid]
EC50: 491 nM

CC1(C)CCc2c(C[C@H](NC(=O)c3c(Cl)cccc3Cl)C(=O)O)ccc(-c3c(Cl)cc(F)cc3Cl)c2O1 [Example 95, (S)-3-(8-(2,6-dichloro-4-fluorophenyl)-2,2-dimethylchroman-5-yl)-2-(2,6-dichlorobenzamido)propanoic acid]
EC50: 625 nM

O=C(N[C@@H](Cc1ccc(-c2c(Cl)cc(F)cc2Cl)c2c1OCCCO2)C(=O)O)c1c(F)cccc1F [Example 96, (S)-3-(9-(2,6-dichloro-4-fluorophenyl)-3,4-dihydro-2H-benzo[b][1,4]dioxepin-6-yl)-2-(2,6-difluorobenzamido)propanoic acid]
EC50: 42.3 nM

O=C(N[C@@H](Cc1ccc(-c2c(Cl)cc(F)cc2Cl)c2c1OCCCO2)C(=O)O)c1c(Cl)cccc1Cl [Example 97, (S)-3-(9-(2,6-dichloro-4-fluorophenyl)-3,4-dihydro-2H-benzo[b][1,4]dioxepin-6-yl)-2-(2,6-dichlorobenzamido)propanoic acid]
EC50: 62 nM

O=C(N[C@@H](Cc1ccc(-c2c(Cl)cc(F)cc2Cl)c2c1OCCC2)C(=O)O)c1c(F)cccc1F [Example 98, (S)-3-(5-(2,6-dichloro-4-fluorophenyl)chroman-8-yl)-2-(2,6-difluorobenzamido)propanoic acid]
EC50: 97.8 nM

CCOCc1cc(OC)c(-c2ccc(C[C@H](NC(=O)c3c(F)cccc3F)C(=O)O)c3c2CCCO3)c(OC)c1 [Example 99, (S)-2-(2,6-difluorobenzamido)-3-(5-(4-(ethoxymethyl)-2,6-dimethoxyphenyl)chroman-8-yl)propanoic acid]
EC50: 9.33 nM

CCOCc1cc(OC)c(-c2ccc(C[C@H](NC(=O)c3c(F)cc(NS(=O)(=O)c4ccc(-c5ccnc(F)c5)cc4)cc3F)C(=O)O)c3c2CCCO3)c(OC)c1 [Example 100, (S)-2-(2,6-difluoro-4-((4-(2-fluoropyridin-4-yl)phenyl)sulfonamido)benzamido)-3-(5-(4-(ethoxymethyl)-2,6-dimethoxyphenyl)chroman-8-yl)propanoic acid]
EC50: 1.67 nM

O=C(N[C@@H](Cc1ccc(-c2c(Cl)cc(F)cc2Cl)c2c1CCCN2)C(=O)O)c1c(F)cccc1F [Example 101, (S)-3-(8-(2,6-dichloro-4-fluorophenyl)-1,2,3,4-tetrahydroquinolin-5-yl)-2-(2,6-difluorobenzamido)propanoic acid]
EC50: 26.9 nM

CN1CCCc2c(C[C@H](NC(=O)c3c(F)cccc3F)C(=O)O)ccc(-c3c(Cl)cc(F)cc3Cl)c21 [Example 102, (S)-3-(8-(2,6-dichloro-4-fluorophenyl)-1-methyl-1,2,3,4-tetrahydroquinolin-5-yl)-2-(2,6-difluorobenzamido)propanoic acid]
EC50: 267 nM

O=C1CCc2c(C[C@H](NC(=O)c3c(F)cccc3F)C(=O)O)ccc(-c3c(Cl)cc(F)cc3Cl)c2N1 [Example 103, (S)-3-(8-(2,6-dichloro-4-fluorophenyl)-2-oxo-1,2,3,4-tetrahydroquinolin-5-yl)-2-(2,6-difluorobenzamido)propanoic acid]
EC50: 96 nM

O=C(N[C@@H](Cc1ccc(-c2c(Cl)cc(F)cc2Cl)c2c1CCC2)C(=O)O)c1c(F)cccc1F [Example 104, (S)-3-(7-(2,6-dichloro-4-fluorophenyl)-2,3-dihydro-1H-inden-4-yl)-2-(2,6-difluorobenzamido)propanoic acid]
EC50: 88.7 nM

Cc1c(-c2ccc(C[C@H](NC(=O)c3c(F)cccc3F)C(=O)O)c3c2CCC3)c(=O)n(C)c2ccc(F)cc12 [Example 105, (S)-2-(2,6-difluorobenzamido)-3-(7-(6-fluoro-1,4-dimethyl-2-oxo-1,2-dihydroquinolin-3-yl)-2,3-dihydro-1H-inden-4-yl)propanoic acid]
EC50: 2.44 nM

COc1cccc(OC)c1-c1ccc(CC(NC(=O)c2c(F)cc(NS(=O)(=O)c3ccc(-n4cncn4)cc3)cc2F)C(=O)O)c2c1CN(C)CC2 (stereo not drawn) [Example 106, 2-(4-((4-(1H-1,2,4-triazol-1-yl)phenyl)sulfonamido)-2,6-difluorobenzamido)-3-(8-(2,6-dimethoxyphenyl)-2-methyl-1,2,3,4-tetrahydroisoquinolin-5-yl)propanoic acid]
EC50: 0.587 nM

COc1cccc(OC)c1-c1ccc(CC(NC(=O)c2c(F)cc(NS(=O)(=O)c3ccc(-n4cncn4)cc3)cc2F)C(=O)O)c2c1CN(C(C)=O)CC2 (stereo not drawn) [Example 107]
EC50: 0.812 nM

Cc1nc(-c2ccc(C[C@H](NC(=O)c3c(F)cc(N4CCOC[C@@H]4C(F)(F)F)cc3F)C(=O)O)c3c2OCCC3)c(=O)n(C)c1C [Example 108, (S)-2-(2,6-difluoro-4-((R)-3-(trifluoromethyl)morpholino)benzamido)-3-(8-(4,5,6-trimethyl-3-oxo-3,4-dihydropyrazin-2-yl)chroman-5-yl)propanoic acid]
EC50: 0.26 nM

Cc1cc(N2CCOC[C@@H]2C(F)(F)F)cc(F)c1C(=O)N[C@@H](Cc1ccc(-n2c(=O)c3ccncc3n(C)c2=O)c2c1CCCO2)C(=O)O [Example 115, (S)-2-(2-fluoro-6-methyl-4-((R)-3-(trifluoromethyl)morpholino)benzamido)-3-(8-(1-methyl-2,4-dioxo-1,4-dihydropyrido[3,4-d]pyrimidin-3(2H)-yl)chroman-5-yl)propanoic acid]
EC50: 0.027 nM

COCN(C(=O)c1c(F)cc(N2CCOC[C@@H]2C(F)(F)F)cc1F)[C@@H](Cc1ccc(-c2nc(C)c(C)n(C)c2=O)c2c1CCCO2)C(=O)O [Example 116]
EC50: 19 nM
